In PubChem BioAssay (NCI):
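Interpolation was linear, between the two tested concentrations surrounding the appropriate level; five concentrations were tested over 48 hours in 96-well plates. GI50 marks 50% less growth. Definition used: TGI = concentration required for complete inhibition of growth.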

Columns and labels:
Test in all cases: DTP human tumour cell line panel, 48 h
A498 renal = tested on: A498 renal
HOP-92 NSCLC = tested on: HOP-92 NSCLC
OVCAR-5 ovarian = tested on: OVCAR-5 ovarian
EKVX NSCLC = tested on: EKVX NSCLC
MDA-MB-468 breast = tested on: MDA-MB-468 breast
K-562 leukemia = tested on: K-562 leukemia
HL-60(TB) leukemia = tested on: HL-60(TB) leukemia
OVCAR-3 ovarian = tested on: OVCAR-3 ovarian
HCC-2998 colon = tested on: HCC-2998 colon
COLO 205 colon = tested on: COLO 205 colon
SNB-75 CNS = tested on: SNB-75 CNS
SK-MEL-2 melanoma = tested on: SK-MEL-2 melanoma
RXF 393 renal = tested on: RXF 393 renal
DU-145 prostate = tested on: DU-145 prostate
A549 NSCLC = tested on: A549 NSCLC
UACC-62 melanoma = tested on: UACC-62 melanoma
CAKI-1 renal = tested on: CAKI-1 renal
NCI/ADR-RES ovarian = tested on: NCI/ADR-RES ovarian
IGROV1 ovarian = tested on: IGROV1 ovarian
HS 578T breast = tested on: HS 578T breast
U251 CNS = tested on: U251 CNS
SK-MEL-5 melanoma = tested on: SK-MEL-5 melanoma
PC-3 prostate = tested on: PC-3 prostate
KM12 colon = tested on: KM12 colon
SW-620 colon = tested on: SW-620 colon
HCT-15 colon = tested on: HCT-15 colon
NCI-H460 lung = tested on: NCI-H460 lung
HOP-62 NSCLC = tested on: HOP-62 NSCLC
NCI-H226 lung = tested on: NCI-H226 lung
TK-10 renal = tested on: TK-10 renal
SN12C renal = tested on: SN12C renal
MDA-MB-231 breast = tested on: MDA-MB-231 breast
SNB-19 CNS = tested on: SNB-19 CNS
OVCAR-4 ovarian = tested on: OVCAR-4 ovarian
T-47D breast = tested on: T-47D breast
SK-OV-3 ovarian = tested on: SK-OV-3 ovarian
NCI-H23 lung = tested on: NCI-H23 lung
M14 melanoma = tested on: M14 melanoma
MDA-MB-435 = tested on: MDA-MB-435
RPMI-8226 leukemia = tested on: RPMI-8226 leukemia
UACC-257 melanoma = tested on: UACC-257 melanoma
CCRF-CEM leukemia = tested on: CCRF-CEM leukemia
MALME-3M melanoma = tested on: MALME-3M melanoma
786-0 renal = tested on: 786-0 renal
BT-549 breast = tested on: BT-549 breast
MCF7 breast = tested on: MCF7 breast
SF-539 CNS = tested on: SF-539 CNS
LOX IMVI melanoma = tested on: LOX IMVI melanoma
NCI-H522 lung = tested on: NCI-H522 lung
SK-MEL-28 melanoma = tested on: SK-MEL-28 melanoma
SR leukemia = tested on: SR leukemia
SF-295 CNS = tested on: SF-295 CNS
MOLT-4 leukemia = tested on: MOLT-4 leukemia
HCT-116 colon = tested on: HCT-116 colon
UO-31 renal = tested on: UO-31 renal
OVCAR-8 ovarian = tested on: OVCAR-8 ovarian
ACHN renal = tested on: ACHN renal
HT29 colon = tested on: HT29 colon
SF-268 CNS = tested on: SF-268 CNS

Compound: O=C(Cn1c(-c2ccccc2)nc2ccccc21)N=Nc1c(O)[nH]c2ccc(Cl)cc12
- GI50 (A498 renal): 13.6 µM
- TGI (A498 renal): 27.3 µM
- GI50 (HOP-92 NSCLC): 13.6 µM
- TGI (HOP-92 NSCLC): 31.4 µM
- GI50 (OVCAR-5 ovarian): 18.8 µM
- TGI (OVCAR-5 ovarian): 48 µM
- GI50 (EKVX NSCLC): 11 µM
- TGI (EKVX NSCLC): 25.6 µM
- GI50 (MDA-MB-468 breast): 5.77 µM
- TGI (MDA-MB-468 breast): 18.9 µM
- GI50 (K-562 leukemia): 6.91 µM
- TGI (K-562 leukemia): > 100 µM
- GI50 (HL-60(TB) leukemia): 24 µM
- TGI (HL-60(TB) leukemia): > 100 µM
- GI50 (OVCAR-3 ovarian): 16.1 µM
- TGI (OVCAR-3 ovarian): 37.2 µM
- GI50 (HCC-2998 colon): 13.4 µM
- TGI (HCC-2998 colon): 27.5 µM
- GI50 (COLO 205 colon): 21 µM
- TGI (COLO 205 colon): 47.9 µM
- GI50 (SNB-75 CNS): 10.3 µM
- TGI (SNB-75 CNS): 23.6 µM
- GI50 (SK-MEL-2 melanoma): 17.4 µM
- TGI (SK-MEL-2 melanoma): 36.5 µM
- GI50 (RXF 393 renal): 4.99 µM
- TGI (RXF 393 renal): 18.6 µM
- GI50 (DU-145 prostate): 18.4 µM
- TGI (DU-145 prostate): 40.2 µM
- GI50 (A549 NSCLC): 13.6 µM
- TGI (A549 NSCLC): 30.8 µM
- GI50 (UACC-62 melanoma): 12.4 µM
- TGI (UACC-62 melanoma): 25.5 µM
- GI50 (CAKI-1 renal): 13.5 µM
- TGI (CAKI-1 renal): 27 µM
- GI50 (NCI/ADR-RES ovarian): 12.8 µM
- TGI (NCI/ADR-RES ovarian): 29.7 µM
- GI50 (IGROV1 ovarian): 14.4 µM
- TGI (IGROV1 ovarian): 29.9 µM
- GI50 (HS 578T breast): 16.5 µM
- TGI (HS 578T breast): 49.6 µM
- GI50 (U251 CNS): 16.9 µM
- TGI (U251 CNS): 33.4 µM
- GI50 (SK-MEL-5 melanoma): 14.6 µM
- TGI (SK-MEL-5 melanoma): 31.3 µM
- GI50 (PC-3 prostate): 12.7 µM
- TGI (PC-3 prostate): 33.8 µM
- GI50 (KM12 colon): 19.2 µM
- TGI (KM12 colon): 62.2 µM
- GI50 (SW-620 colon): 15.5 µM
- TGI (SW-620 colon): 37.7 µM
- GI50 (HCT-15 colon): 9.6 µM
- TGI (HCT-15 colon): 24 µM
- GI50 (NCI-H460 lung): 15.4 µM
- TGI (NCI-H460 lung): 33 µM
- GI50 (HOP-62 NSCLC): 17.2 µM
- TGI (HOP-62 NSCLC): 37.7 µM
- GI50 (NCI-H226 lung): 12.1 µM
- TGI (NCI-H226 lung): 30.2 µM
- GI50 (TK-10 renal): 17.5 µM
- TGI (TK-10 renal): 35.6 µM
- GI50 (SN12C renal): 15.5 µM
- TGI (SN12C renal): 31.1 µM
- GI50 (MDA-MB-231 breast): 11.9 µM
- TGI (MDA-MB-231 breast): 24.9 µM
- GI50 (SNB-19 CNS): 16.7 µM
- TGI (SNB-19 CNS): 33.7 µM
- GI50 (OVCAR-4 ovarian): 15.3 µM
- TGI (OVCAR-4 ovarian): 34.2 µM
- GI50 (T-47D breast): 11.6 µM
- TGI (T-47D breast): 30 µM
- GI50 (SK-OV-3 ovarian): 19.3 µM
- TGI (SK-OV-3 ovarian): 38.2 µM
- GI50 (NCI-H23 lung): 13.7 µM
- TGI (NCI-H23 lung): 28.2 µM
- GI50 (M14 melanoma): 17.7 µM
- TGI (M14 melanoma): 40.4 µM
- GI50 (MDA-MB-435): 9.18 µM
- TGI (MDA-MB-435): 26 µM
- GI50 (RPMI-8226 leukemia): 20.5 µM
- TGI (RPMI-8226 leukemia): > 100 µM
- GI50 (UACC-257 melanoma): 14.1 µM
- TGI (UACC-257 melanoma): 28.6 µM
- GI50 (CCRF-CEM leukemia): 20 µM
- TGI (CCRF-CEM leukemia): > 100 µM
- GI50 (MALME-3M melanoma): 12.2 µM
- TGI (MALME-3M melanoma): 25.5 µM
- GI50 (786-0 renal): 17.9 µM
- TGI (786-0 renal): 39 µM
- GI50 (BT-549 breast): 16.7 µM
- TGI (BT-549 breast): 35.7 µM
- GI50 (MCF7 breast): 10.9 µM
- TGI (MCF7 breast): 25.2 µM
- GI50 (SF-539 CNS): 14.7 µM
- TGI (SF-539 CNS): 30.5 µM
- GI50 (LOX IMVI melanoma): 14.5 µM
- TGI (LOX IMVI melanoma): 28.6 µM
- GI50 (NCI-H522 lung): 10.3 µM
- TGI (NCI-H522 lung): 25.1 µM
- GI50 (SK-MEL-28 melanoma): 14.4 µM
- TGI (SK-MEL-28 melanoma): 30.2 µM
- GI50 (SR leukemia): 8.56 µM
- TGI (SR leukemia): > 100 µM
- GI50 (SF-295 CNS): 12.3 µM
- TGI (SF-295 CNS): 26.1 µM
- GI50 (MOLT-4 leukemia): 6.41 µM
- TGI (MOLT-4 leukemia): > 100 µM
- GI50 (HCT-116 colon): 10 µM
- TGI (HCT-116 colon): 29.3 µM
- GI50 (UO-31 renal): 11.4 µM
- TGI (UO-31 renal): 24.1 µM
- GI50 (OVCAR-8 ovarian): 16.1 µM
- TGI (OVCAR-8 ovarian): 34.5 µM
- GI50 (ACHN renal): 16 µM
- TGI (ACHN renal): 34 µM
- GI50 (HT29 colon): 14.7 µM
- TGI (HT29 colon): 30.7 µM
- GI50 (SF-268 CNS): 16.1 µM
- TGI (SF-268 CNS): 47.9 µM
